Assay results as given in patent US20150094283A1, “COMBINATION” (GlaxoSmithKline LLC, priority 2010, published 2015).

System: SKOV3 tumor xenografts (human ovarian carcinoma)
Assay: Growth of SKOV3 tumor xenografts in SCID mice (tumor growth inhibition)
Format: in vivo
Conditions: PO, compared to vehicle treated mice
Experimental: Female SCID mice were implanted subcutaneously with 5×10^6 SKOV3 cells (human ovarian carcinoma). When the tumor volume reached 300-400 mm^3, mice were block randomized to different treatment groups (n=8 mice/group). Mice received the AKT inhibitor, Compound C as the free base, at 10 or 30 mg/kg, once daily (SID) for 21 days in 20% PEG-400, 1% DMSO in water. The VEGFR inhibitor, Compound A as the monohydrochloride salt, was administered at 100 mg/kg, twice/day (BID) for 21 days either alone or in combination with the AKT inhibitor. Mice were weighed and tumors measured by calipers twice weekly. Tumor volumes were calculated using the formula: tumor volume=(Length×Width^2)/2. The percentage of tumor growth inhibition was calculated on each day of tumor measurement using the formula: 100×[1−(average growth of the compound-treated tumors/average growth of vehicle-treated control tumors)]. Data is plotted as mean±sem for tumor volume for each group.

| SMILES | Tumor Growth Inhibition (Compound A (monohydrochloride salt) 100 mg/kg, BID x21 d, 100 mg/kg) | Tumor Growth Inhibition (Compound C (free base) 10 mg/kg, SID x21 d, 10 mg/kg) | Tumor Growth Inhibition (Compound C (free base) 30 mg/kg, SID x21 d, 30 mg/kg) |
| --- | --- | --- | --- |
| Cc1ccc(Nc2nccc(N(C)c3ccc4c(C)n(C)nc4c3)n2)cc1S(N)(=O)=O [Compound A, 5-[[4-[(2,3-dimethyl-2H-indazol-6-yl)methylamino]-2-pyrimidinyl]amino]-2-methylbenzenesulfonamide, reference compound] | 47% |  |  |
| Cn1ncc(Cl)c1-c1cc(C(=O)N[C@H](CN)Cc2ccc(F)c(F)c2)oc1Cl [Compound C, N-{(1S)-2-amino-1-[(3,4-difluorophenyl)methyl]ethyl}-5-chloro-4-(4-chloro-1-methyl-1H-pyrazol-5-yl)-2-furancarboxamide] |  | 86% | 67% |
